Here are results for 11 compounds from US20240309003A1, “HETEROCYCLIC COMPOUNDS AS TRIGGERING RECEPTOR EXPRESSED ON MYELOID CELLS 2 AGONISTS AND METHODS OF USE” (Vigil Neuroscience, Inc., priority 2021, published 2024).

Usually EC50 stands for the concentration that produces a half-maximal response. Low readings indicate a more potent agent, high ones a less potent agent.

In this assay the target is T1, human TREM2 (Homo sapiens, UniProt Q9NZC2).
T1 construct: expressed in transfected cells; host or cells: HEK293T
T1 sequence (Q9NZC2 19-230): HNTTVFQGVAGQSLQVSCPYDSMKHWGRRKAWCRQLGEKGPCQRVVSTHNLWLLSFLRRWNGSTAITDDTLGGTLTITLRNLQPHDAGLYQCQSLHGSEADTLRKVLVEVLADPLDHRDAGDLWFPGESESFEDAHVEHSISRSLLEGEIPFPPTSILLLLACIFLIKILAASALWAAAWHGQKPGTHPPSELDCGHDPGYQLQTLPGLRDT
T1 sequence (O43914 22-113 partner): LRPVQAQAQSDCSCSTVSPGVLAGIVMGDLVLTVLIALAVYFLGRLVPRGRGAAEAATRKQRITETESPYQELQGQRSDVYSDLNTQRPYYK
Briefly: TREM2 agonist potency by cellular phosphorylation of Syk (AlphaLisa) in HEK293T-hTREM2 cells. Format: cell-based. The note with it: HEK293 cells expressing human TREM2 and DAP12, Table D. An outline of the steps:
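Agonist EC50 from a variable-slope four-parameter fit of % activation, based on AlphaLisa phospho-Syk levels in lysates. Cells: HEK293T-hTREM2 (with DAP12), treated 45 min at room temperature with compound in assay buffer.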
As for `[2H]C([2H])([2H])c1nc2nc([C@H]3CCO[C@@H](c4cnn(C([2H])([2H])[2H])c4)C3)nc(-c3ccc(C)cc3)c2nc1C([2H])([2H])[2H]` [Example 173, 6,7-bis(methyl-d3)-2-((2R,4S)-2-(1-(methyl-d3)-1H-pyrazol-4-yl)tetrahydro-2H-pyran-4-yl)-4-(p-tolyl)pteridine], the half-maximal effective concentration (EC50) was 50 to 500 nM.
Consider `[2H]C([2H])([2H])c1ccc(-c2nc([C@@H]3CCO[C@H](c4cnn(C([2H])([2H])[2H])c4)C3)nc3nc(C([2H])([2H])[2H])c(C([2H])([2H])[2H])nc23)cc1` [Example 174, 6,7-bis(methyl-d3)-2-((2S,4R)-2-(1-(methyl-d3)-1H-pyrazol-4-yl)tetrahydro-2H-pyran-4-yl)-4-(4-(methyl-d3)phenyl)pteridine], for which the EC50 lay in the range of 3000 to 100000 nM.
As for `[2H]C([2H])([2H])c1ccc(-c2nc([C@H]3CCO[C@@H](c4cnn(C([2H])([2H])[2H])c4)C3)nc3nc(C([2H])([2H])[2H])c(C([2H])([2H])[2H])nc23)cc1` [Example 175, 6,7-bis(methyl-d3)-2-((2R,4S)-2-(1-(methyl-d3)-1H-pyrazol-4-yl)tetrahydro-2H-pyran-4-yl)-4-(4-(methyl-d3)phenyl)pteridine], the figure is 50 to 500 nM; as for `Cc1nc2nc(N3C[C@@H](C)O[C@@H](c4cnn(C5CC5)c4)C3)nc(-c3ccnc(C(F)(F)F)c3)c2nc1C` [Example 178], below 50 nM.
The value for `[2H]C1(n2cc([C@H]3C[C@@H](c4nc(-c5ccc(Cl)cc5F)c5nc(C)c(C)nc5n4)CCO3)cn2)CC1` [Example 179, 4-(4-chloro-2-fluorophenyl)-2-((2R,4S)-2-(1-(cyclopropyl-1-d)-1H-pyrazol-4-yl)tetrahydro-2H-pyran-4-yl)-6,7-dimethylpteridine] was below 50 nM; that for `Cc1nc2nc([C@H]3CCO[C@@H](c4cnn(C5CC5)c4)C3)nc(C3CCC(F)(F)CC3)c2nc1C` [Example 180, 2-((2R,4S)-2-(1-cyclopropyl-1H-pyrazol-4-yl)tetrahydro-2H-pyran-4-yl)-4-(4,4-difluorocyclohexyl)-6,7-dimethylpteridine] was below 50 nM.
The value for `[2H]C([2H])([2H])c1nc2nc([C@H]3CCO[C@@H](c4cnn(C5CC5)c4)C3)nc(-c3ccc(Cl)cc3F)c2nc1C([2H])([2H])[2H]` [Example 181, 4-(4-chloro-2-fluorophenyl)-2-((2R,4S)-2-(1-cyclopropyl-1H-pyrazol-4-yl)tetrahydro-2H-pyran-4-yl)-6,7-bis(methyl-d3)pteridine] was below 50 nM.
As to `[2H][C@]1(c2cnn(C3CC3)c2)C[C@@H](c2nc(-c3ccc(F)cc3F)c3nc(C)c(C)nc3n2)CCO1` [Example 182, 2-((2R,4S)-2-(1-cyclopropyl-1H-pyrazol-4-yl)tetrahydro-2H-pyran-4-yl-2-d)-4-(2,4-difluorophenyl)-6,7-dimethylpteridine], the EC50 was below 50 nM.
The value for `Cc1cc([C@H]2C[C@@H](c3cc(-c4ccc(Cl)cc4F)c4cc(C)c(C)nc4n3)CCO2)ccn1` [Example 184, 5-(4-chloro-2-fluorophenyl)-2,3-dimethyl-7-((2R,4S)-2-(2-methylpyridin-4-yl)tetrahydro-2H-pyran-4-yl)-1,8-naphthyridine] was below 50 nM; that for `Cc1cc([C@@H]2C[C@H](c3cc(-c4ccc(Cl)cc4F)c4cc(C)c(C)nc4n3)CCO2)ccn1` [Example 185, 5-(4-chloro-2-fluorophenyl)-2,3-dimethyl-7-((2S,4R)-2-(2-methylpyridin-4-yl)tetrahydro-2H-pyran-4-yl)-1,8-naphthyridine] was 500 to 3000 nM; that for `Cc1cc([C@H]2C[C@@H](c3cc(-c4ccc(Cl)c(F)c4F)c4cc(C)c(C)nc4n3)CCO2)ccn1` [Example 186, 5-(4-chloro-2,3-difluorophenyl)-2,3-dimethyl-7-((2R,4S)-2-(2-methylpyridin-4-yl)tetrahydro-2H-pyran-4-yl)-1,8-naphthyridine] was 500 to 3000 nM.
